Results taken from patent US7342011B2, “Rifamycin analogs and uses thereof” (priority 2003, dated 2008).
Values after ≈ are worked out from the molar mass of the structure shown.

Columns and labels:
Assay type in all cases: cell-based
E. coli = assay: MIC assay, E. coli
S. pneumo. = assay: MIC assay, S. pneumo.
H. flu = assay: MIC assay, H. flu
E. faecalis = assay: MIC assay, E. faecalis
S. aureus = assay: MIC assay, S. aureus

Compound	MIC (μg/mL) E. coli (E. coli)	MIC (μg/mL) S. pneumo. (S. pneumo.)	MIC (μg/mL) H. flu (H. flu)	MIC (μg/mL) E. faecalis (E. faecalis)	MIC (μg/mL) S. aureus (S. aureus)
CCOC(=O)NC1CCN(c2cc(O)c3nc4c5c6c7c(C)c(O)c5c(=O)c(c-4oc3c2)NC(=O)/C(C)=C\C=C\[C@H](C)[C@H](O)[C@@H](C)[C@@H](O)[C@@H](C)[C@H](OC(C)=O)[C@H](C)[C@@H](OC)/C=C/O[C@@](C)(O7)C6=O)CC1 [Compound 1]	>8 µg/mL	0.00025 µg/mL (≈ 0.257 nM)	2 µg/mL (≈ 2060 nM)	2 µg/mL (≈ 2060 nM)	0.008 µg/mL (≈ 8.24 nM)
CCOC(=O)NC1CCN(c2cc(O)c3nc4c5c6c7c(C)c(O)c5c(=O)c(c-4oc3c2)NC(=O)C(C)=CC=CC(C)C(O)C(C)C(O)C(C)C(O)C(C)C(OC)C=COC(C)(O7)C6=O)CC1 (centres unmarked) [Compound 3, 25-O-deacetyl-3′-hydroxy-5′-(4-ethylcarbamyl-1-piperidinyl)benzoxazinorifamycin]	4 µg/mL (≈ 4310 nM)	0.0005 µg/mL (≈ 0.538 nM)	0.25 µg/mL (≈ 269 nM)	0.12 µg/mL (≈ 129 nM)	0.03 µg/mL (≈ 32.3 nM)
CCCNC(=O)NC1CCN(c2cc(O)c3nc4c5c6c7c(C)c(O)c5c(=O)c(c-4oc3c2)NC(=O)C(C)=CC=CC(C)C(O)C(C)C(O)C(C)C(O)C(C)C(OC)C=COC(C)(O7)C6=O)CC1 (centres unmarked) [Compound 26, 25-O-deacetyl-3′-hydroxy-5′-[4-propyluryl-1-piperidinyl]benzoxazinorifamycin]	>8 µg/mL	0.00012 µg/mL (≈ 0.127 nM)	1 µg/mL (≈ 1060 nM)	2 µg/mL (≈ 2120 nM)	0.008 µg/mL (≈ 8.49 nM)
COC1C=COC2(C)Oc3c(C)c(O)c4c(=O)c(c5oc6cc(N7CCC(NS(C)(=O)=O)CC7)cc(O)c6nc-5c4c3C2=O)NC(=O)C(C)=CC=CC(C)C(O)C(C)C(O)C(C)C(O)C1C (centres unmarked) [Compound 27]	>8 µg/mL	0.001 µg/mL (≈ 1.07 nM)	0.12 µg/mL (≈ 128 nM)	1 µg/mL (≈ 1070 nM)	0.015 µg/mL (≈ 16 nM)
COC1C=COC2(C)Oc3c(C)c(O)c4c(=O)c(c5oc6cc(N7CCC(NC(=O)OC(C)C)CC7)cc(O)c6nc-5c4c3C2=O)NC(=O)C(C)=CC=CC(C)C(O)C(C)C(O)C(C)C(O)C1C (centres unmarked) [Compound 29, 25-O-deacetyl-3′-hydroxy-5′-[4-isopropylcarbamyl-1-piperidinyl]benzoxazinorifamycin]	>8 µg/mL	0.00012 µg/mL (≈ 0.127 nM)	1 µg/mL (≈ 1060 nM)	2 µg/mL (≈ 2120 nM)	0.008 µg/mL (≈ 8.48 nM)
CCCS(=O)(=O)NC1CCN(c2cc(O)c3nc4c5c6c7c(C)c(O)c5c(=O)c(c-4oc3c2)NC(=O)/C(C)=C\C=C\[C@H](C)[C@H](O)[C@@H](C)[C@@H](O)[C@@H](C)[C@H](OC(C)=O)[C@H](C)[C@@H](OC)/C=C/O[C@@](C)(O7)C6=O)CC1 [Compound 35]	8 µg/mL (≈ 7960 nM)	0.00025 µg/mL (≈ 0.249 nM)	0.5 µg/mL (≈ 497 nM)	4 µg/mL (≈ 3980 nM)	0.015 µg/mL (≈ 14.9 nM)
CO[C@H]1/C=C/O[C@@]2(C)Oc3c(C)c(O)c4c(=O)c(c5oc6cc(N7CCC(N)CC7)cc(O)c6nc-5c4c3C2=O)NC(=O)/C(C)=C\C=C\[C@H](C)[C@H](O)[C@@H](C)[C@@H](O)[C@@H](C)[C@H](O)[C@@H]1C [Compound 39, 25-O-deacetyl-3′-hydroxy-5′-[4-amino-1-piperidinyl]benzoxazinorifamycin]	>8 µg/mL	0.001 µg/mL (≈ 1.17 nM)	0.25 µg/mL (≈ 292 nM)	2 µg/mL (≈ 2330 nM)	0.03 µg/mL (≈ 35 nM)
CCOC(=O)N1CCC[C@@H]2CN(c3cc(O)c4nc5c6c7c8c(C)c(O)c6c(=O)c(c-5oc4c3)NC(=O)/C(C)=C\C=C\[C@H](C)[C@H](O)[C@@H](C)[C@@H](O)[C@@H](C)[C@H](OC(C)=O)[C@H](C)[C@@H](OC)/C=C/O[C@@](C)(O8)C7=O)C[C@@H]21 [Compound 40, 3′-hydroxy-5′-[1-ethylcarbamyl-(4aR,7aR)-octahydro-6H-pyrrolo[3,4-b]pyridin-6-yl]benzoxazinorifamycin]	>8 µg/mL	0.008 µg/mL (≈ 8.02 nM)	0.5 µg/mL (≈ 501 nM)	1 µg/mL (≈ 1000 nM)	0.06 µg/mL (≈ 60.2 nM)
COCCOC(=O)NC1CCN(c2cc(O)c3nc4c5c6c7c(C)c(O)c5c(=O)c(c-4oc3c2)NC(=O)/C(C)=C\C=C\[C@H](C)[C@H](O)[C@@H](C)[C@@H](O)[C@@H](C)[C@H](OC(C)=O)[C@H](C)[C@@H](OC)/C=C/O[C@@](C)(O7)C6=O)CC1 [Compound 41, 3′-hydroxy-5′-[4-methoxyethylcarbamyl-1-piperidinyl]benzoxazinorifamycin]	>8 µg/mL	0.0005 µg/mL (≈ 0.499 nM)	2 µg/mL (≈ 2000 nM)	>8 µg/mL	0.25 µg/mL (≈ 250 nM)
CCOC(=O)N1CCCC2CN(c3cc(O)c4nc5c6c7c8c(C)c(O)c6c(=O)c(c-5oc4c3)NC(=O)C(C)=CC=CC(C)C(O)C(C)C(O)C(C)C(O)C(C)C(OC)C=COC(C)(O8)C7=O)CC21 (centres unmarked) [Compound 42]	8 µg/mL (≈ 8380 nM)	0.00012 µg/mL (≈ 0.126 nM)	0.5 µg/mL (≈ 524 nM)	2 µg/mL (≈ 2090 nM)	0.008 µg/mL (≈ 8.38 nM)
CO[C@H]1/C=C/O[C@@]2(C)Oc3c(C)c(O)c4c(=O)c(c5oc6cc(N7CCC(NC(C)=O)CC7)cc(O)c6nc-5c4c3C2=O)NC(=O)/C(C)=C\C=C\[C@H](C)[C@H](O)[C@@H](C)[C@@H](O)[C@@H](C)[C@H](OC(C)=O)[C@@H]1C [Compound 44]	>8 µg/mL	0.008 µg/mL (≈ 8.5 nM)	0.25 µg/mL (≈ 266 nM)	2 µg/mL (≈ 2130 nM)	0.06 µg/mL (≈ 63.8 nM)
CO[C@H]1/C=C/O[C@@]2(C)Oc3c(C)c(O)c4c(=O)c(c5oc6cc(N7CCC(NC(=O)SC)CC7)cc(O)c6nc-5c4c3C2=O)NC(=O)/C(C)=C\C=C\[C@H](C)[C@H](O)[C@@H](C)[C@@H](O)[C@@H](C)[C@H](OC(C)=O)[C@@H]1C [Compound 45, 3′-hydroxy-5′-[4-S-methylthiocarbamyl-1-piperidinyl]benzoxazinorifamycin]	8 µg/mL (≈ 8220 nM)	0.001 µg/mL (≈ 1.03 nM)	0.5 µg/mL (≈ 514 nM)	4 µg/mL (≈ 4110 nM)	0.015 µg/mL (≈ 15.4 nM)
CO[C@H]1/C=C/O[C@@]2(C)Oc3c(C)c(O)c4c(=O)c(c5oc6cc(N7C[C@H]8CCCN(C(C)=O)[C@H]8C7)cc(O)c6nc-5c4c3C2=O)NC(=O)/C(C)=C\C=C\[C@H](C)[C@H](O)[C@@H](C)[C@@H](O)[C@@H](C)[C@H](O)[C@@H]1C [Compound 46, 25-O-deacetyl-3′-hydroxy-5′-[1-acetyl-(4aR,7aR)-octahydro-6H-pyrrolo[3,4-b]pyridin-6-yl]benzoxazinorifamycin]	>8 µg/mL	0.00006 µg/mL (≈ 0.0649 nM)	0.5 µg/mL (≈ 541 nM)	2 µg/mL (≈ 2160 nM)	0.004 µg/mL (≈ 4.32 nM)
CO[C@H]1/C=C/O[C@@]2(C)Oc3c(C)c(O)c4c(=O)c(c5oc6cc(N7C[C@H]8CCCN(C(C)=O)[C@H]8C7)cc(O)c6nc-5c4c3C2=O)NC(=O)/C(C)=C\C=C\[C@H](C)[C@H](O)[C@@H](C)[C@@H](O)[C@@H](C)[C@H](OC(C)=O)[C@@H]1C [Compound 47, 3′-hydroxy-5′-[-acetyl-(4aR,7aR)-octahydro-6H-pyrrolo[3,4-b]pyridin-6-yl]benzoxazinorifamycin]	>8 µg/mL	0.002 µg/mL (≈ 2.07 nM)	0.25 µg/mL (≈ 259 nM)	1 µg/mL (≈ 1030 nM)	0.008 µg/mL (≈ 8.27 nM)
CO[C@H]1/C=C/O[C@@]2(C)Oc3c(C)c(O)c4c(=O)c(c5oc6cc(N7CCC(NC(=O)OC(C)(C)C)CC7)cc(O)c6nc-5c4c3C2=O)NC(=O)/C(C)=C\C=C\[C@H](C)[C@H](O)[C@@H](C)[C@@H](O)[C@@H](C)[C@H](OC(C)=O)[C@@H]1C [Compound 48, 3′-hydroxy-5,′-[4-(2,2-dimethylethyl)carbamyl-1-piperidinyl]benzoxazinorifamycin]	>8 µg/mL	0.00025 µg/mL (≈ 0.25 nM)	1 µg/mL (≈ 1000 nM)	2 µg/mL (≈ 2000 nM)	0.008 µg/mL (≈ 8.01 nM)
CCCS(=O)(=O)NC1CCN(c2cc(O)c3nc4c5c6c7c(C)c(O)c5c(=O)c(c-4oc3c2)NC(=O)C(C)=CC=CC(C)C(O)C(C)C(O)C(C)C(O)C(C)C(OC)C=COC(C)(O7)C6=O)CC1 (centres unmarked) [Compound 67]	>8 µg/mL				
COC1C=COC2(C)Oc3c(C)c(O)c4c(=O)c(c5oc6cc(N7CCC(C)(NC(C)=O)CC7)cc(O)c6nc-5c4c3C2=O)NC(=O)C(C)=CC=CC(C)C(O)C(C)C(O)C(C)C(O)C1C (centres unmarked) [Compound 74, 25-O-deacetyl-3′-hydroxy-5′-[4-methyl-4-acetylamino-1-piperidinyl]benzoxazinorifamycin]	>8 µg/mL				
